Inconclusive results and toxic doses are left out. Rule as the data show it: active = T/C of 150% or more; inactive = T/C below 125%.
Tested on: L1210 leukemia ip in BDF1 mice, survival T/C
Assay: NCI In Vivo Anticancer Drug Screen. Data for tumor model L1210 Leukemia (intraperitoneal) in B6D2F1 (BDF1) mice
Conditions: endpoint: mean survival time, higher = longer survival
Outline: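 Antitumor effect is assessed in tumor-bearing animals. Survival in the compound arm is compared with a vehicle-dosed control arm and expressed as their quotient.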

[1] = dose: 100.0 mg/kg/injection, schedule: Q04DX002 (ip), vehicle: Klucel (hydroxypropylcellulose) (HPC)
[2] = dose: 100.0 mg/kg/injection, schedule: Q01DX001 (ip), vehicle: saline
[3] = dose: 200.0 mg/kg/injection, schedule: Q01DX001 (ip), vehicle: saline
[4] = dose: 100.0 mg/kg/injection, schedule: Q04DX002 (ip), vehicle: saline
[5] = dose: 200.0 mg/kg/injection, schedule: Q04DX002 (ip), vehicle: saline
[6] = dose: 50.0 mg/kg/injection, schedule: Q01DX001 (ip), vehicle: saline
[7] = dose: 400.0 mg/kg/injection, schedule: Q01DX001 (ip), vehicle: saline
[8] = dose: 200.0 mg/kg/injection, schedule: Q04DX002 (ip), vehicle: Klucel (hydroxypropylcellulose) (HPC)
[9] = dose: 400.0 mg/kg/injection, schedule: Q04DX002 (ip), vehicle: Klucel (hydroxypropylcellulose) (HPC)
[10] = dose: 100.0 mg/kg/injection, schedule: Q04DX003 (ip), vehicle: saline with Tween-80
[11] = dose: 100.0 mg/kg/injection, schedule: Q01DX009 (ip), vehicle: Klucel (hydroxypropylcellulose) (HPC)
[12] = dose: 100.0 mg/kg/injection, schedule: Q04DX003 (ip), vehicle: Klucel (hydroxypropylcellulose) (HPC)
[13] = dose: 200.0 mg/kg/injection, schedule: Q01DX009 (ip), vehicle: Klucel (hydroxypropylcellulose) (HPC)
[14] = dose: 200.0 mg/kg/injection, schedule: Q04DX003 (ip), vehicle: Klucel (hydroxypropylcellulose) (HPC)
[15] = dose: 400.0 mg/kg/injection, schedule: Q04DX003 (ip), vehicle: Klucel (hydroxypropylcellulose) (HPC)
[16] = dose: 200.0 mg/kg/injection, schedule: Q04DX003 (ip), vehicle: saline with Tween-80
[17] = dose: 400.0 mg/kg/injection, schedule: Q04DX003 (ip), vehicle: saline with Tween-80
[18] = dose: 50.0 mg/kg/injection, schedule: Q01DX009 (ip), vehicle: Klucel (hydroxypropylcellulose) (HPC)
[19] = dose: 100.0 mg/kg/injection, schedule: Q01DX009 (ip), vehicle: saline with Tween-80
[20] = dose: 200.0 mg/kg/injection, schedule: Q01DX009 (ip), vehicle: saline with Tween-80
[21] = dose: 400.0 mg/kg/injection, schedule: Q01DX009 (ip), vehicle: saline with Tween-80

Measured: T/C

CNC(=O)CCCOC(=O)c1ccc([N+](=O)[O-])cc1
inactive: dose: 25.0 mg/kg/injection, schedule: Q04DX002 (ip), vehicle: Klucel (hydroxypropylcellulose) (HPC) 108 % of control | dose: 50.0 mg/kg/injection, schedule: Q04DX002 (ip), vehicle: Klucel (hydroxypropylcellulose) (HPC) 108 % of control | [1] 104 % of control

CC(C)=CCCC(C)CCO (configuration not stated)
inactive: [2] 94 % of control | [3] 100 % of control

CCOC(=O)c1nnn(-c2cccnc2)c1C
inactive: [4] 99 % of control | [5] 101 % of control | dose: 400.0 mg/kg/injection, schedule: Q04DX002 (ip), vehicle: saline 92 % of control

CCOC(=O)NP(=O)(NC(=O)OCC)NC(=O)OCC
inactive: [6] 106 % of control | [2] 104 % of control | [3] 93 % of control | [7] 106 % of control

CCOC(=O)C(C(=O)OCC)C(CC(=O)C1CC1)c1ccccc1 (configuration not stated)
inactive: dose: 50.0 mg/kg/injection, schedule: Q01DX001 (ip), vehicle: carboxymethylcellulose (CMC) 92 % of control | dose: 100.0 mg/kg/injection, schedule: Q01DX001 (ip), vehicle: carboxymethylcellulose (CMC) 95 % of control | [1] 97 % of control | dose: 200.0 mg/kg/injection, schedule: Q01DX001 (ip), vehicle: carboxymethylcellulose (CMC) 92 % of control | [8] 101 % of control | dose: 400.0 mg/kg/injection, schedule: Q01DX001 (ip), vehicle: carboxymethylcellulose (CMC) 95 % of control | [9] 111 % of control

O=C(O)C1(C(=O)O)CCC2(CCCCC2)CC1
inactive: dose: 25.0 mg/kg/injection, schedule: Q01DX009 (ip), vehicle: water 95 % of control | dose: 50.0 mg/kg/injection, schedule: Q01DX009 (ip), vehicle: water 101 % of control

c1ccc(-c2csc3cccc[n+]23)cc1
inactive: [10] 102 % of control

Cn1c(=O)c2c(nc(OCC3CCCO3)n2C)n(C)c1=O (configuration not stated)
inactive: [2] 106 % of control | [3] 100 % of control

CCN(CC)C(=O)C1CCCCC1C (configuration not stated)
inactive: [4] 111 % of control | [5] 105 % of control

COC(=O)CCc1ccc(NP(=O)(N2CC2)N2CC2)cc1
inactive: dose: 25.0 mg/kg/injection, schedule: Q01DX015 (ip), vehicle: carboxymethylcellulose (CMC) 122 % of control | dose: 50.0 mg/kg/injection, schedule: Q01DX015 (ip), vehicle: carboxymethylcellulose (CMC) 119 % of control

Nc1ccc(S(=O)(=O)Nc2cccc3ccccc23)cc1
inactive: [11] 100 % of control | [12] 90 % of control | [13] 99 % of control | [14] 92 % of control | dose: 400.0 mg/kg/injection, schedule: Q01DX009 (ip), vehicle: Klucel (hydroxypropylcellulose) (HPC) 101 % of control | [15] 95 % of control

Cc1ccc(NC(=O)COc2ccc(Cl)cc2Cl)cc1NC(=O)COc1ccc(Cl)cc1Cl
inactive: [1] 89 % of control | [8] 92 % of control | [9] 100 % of control

O=C1CC(C(=O)O)C(c2ccccc2F)O1 (configuration not stated)
inactive: [12] 98 % of control | [14] 101 % of control | [15] 103 % of control

CCOC(=O)C(C(=O)OCC)c1cc(NC(=O)c2ccccc2)ccc1NC(=O)c1ccccc1
inactive: [10] 98 % of control | [16] 95 % of control | [17] 95 % of control

CCC(CC)(Cc1ccccc1)C(=O)NC(=O)NOC
inactive: dose: 100.0 mg/kg/injection, schedule: Q01DX Z (ip), vehicle: methylcellulose (MC) 98 % of control | dose: 200.0 mg/kg/injection, schedule: Q01DX Z (ip), vehicle: methylcellulose (MC) 96 % of control

CCOC(=O)C1(C(=O)OCC)C(C)CC2Nc3cc4c(cc3C(=O)N21)OCO4 (configuration not stated)
inactive: dose: 25.0 mg/kg/injection, schedule: Q04DX003 (ip), vehicle: Klucel (hydroxypropylcellulose) (HPC) 94 % of control | dose: 50.0 mg/kg/injection, schedule: Q04DX003 (ip), vehicle: Klucel (hydroxypropylcellulose) (HPC) 101 % of control | [12] 97 % of control

O=C1c2cc([N+](=O)[O-])ccc2-c2c(F)cc(F)cc21
inactive: dose: 100.0 mg/kg/injection, schedule: Q04DX003 (ip), vehicle: saline 104 % of control | dose: 200.0 mg/kg/injection, schedule: Q04DX003 (ip), vehicle: saline 89 % of control | dose: 400.0 mg/kg/injection, schedule: Q04DX003 (ip), vehicle: saline 91 % of control

CP1(=O)CCC=C1C(=O)O (configuration not stated)
inactive: [2] 95 % of control | [3] 95 % of control | [7] 95 % of control

CCNc1nc(C)c2nc(C(=O)OCC)c(=O)[nH]c2n1
inactive: [18] 95 % of control | [11] 95 % of control | [13] 98 % of control

C[P+](c1ccc(F)cc1)(c1ccc(F)cc1)c1ccc(F)cc1
inactive: dose: 25.0 mg/kg/injection, schedule: Q01DX009 (ip), vehicle: Klucel (hydroxypropylcellulose) (HPC) 98 % of control | [18] 96 % of control | [12] 89 % of control

CCN(CC)C(=O)Cn1ccc(O)cc1=O
inactive: [10] 109 % of control | [16] 98 % of control | [17] 104 % of control

NC(N)=NC(N)=NCCCc1ccccc1
inactive: dose: 12.5 mg/kg/injection, schedule: Q01DX001 (ip), vehicle: other 107 % of control | dose: 12.5 mg/kg/injection, schedule: Q04DX003 (ip), vehicle: other 97 % of control | dose: 25.0 mg/kg/injection, schedule: Q01DX001 (ip), vehicle: other 96 % of control | dose: 25.0 mg/kg/injection, schedule: Q04DX003 (ip), vehicle: other 94 % of control | dose: 50.0 mg/kg/injection, schedule: Q01DX001 (ip), vehicle: other 102 % of control | dose: 50.0 mg/kg/injection, schedule: Q04DX003 (ip), vehicle: other 97 % of control | [2] 96 % of control | [3] 96 % of control

CC(CCNc1ccc(NCCC(C)CC(C)(C)C)cc1)CC(C)(C)C (configuration not stated)
inactive: [11] 98 % of control | [12] 110 % of control | [13] 101 % of control | [14] 102 % of control | [15] 96 % of control

COc1ccc(C2(OC)Oc3ccccc3-c3nc4ccccc4nc32)cc1 (configuration not stated)
inactive: [6] 95 % of control | [2] 95 % of control | [3] 87 % of control | [7] 95 % of control

CC(=O)Nc1ccccc1C#N
inactive: dose: 100.0 mg/kg/injection, schedule: Q04DX003 (ip), vehicle: saline sonified 104 % of control | dose: 200.0 mg/kg/injection, schedule: Q04DX003 (ip), vehicle: saline sonified 101 % of control | dose: 400.0 mg/kg/injection, schedule: Q04DX003 (ip), vehicle: saline sonified 97 % of control

Cc1cccc(Cl)c1NC1=NCCO1
inactive: dose: 6.25 mg/kg/injection, schedule: Q01DX009 (ip), vehicle: saline with Tween-80 93 % of control | dose: 12.5 mg/kg/injection, schedule: Q01DX009 (ip), vehicle: saline with Tween-80 102 % of control | dose: 25.0 mg/kg/injection, schedule: Q01DX009 (ip), vehicle: saline with Tween-80 100 % of control

C=CC[As](C)(=O)O
inactive: dose: 100.0 mg/kg/injection, schedule: Q01DX009 (ip), vehicle: saline 109 % of control | dose: 200.0 mg/kg/injection, schedule: Q01DX009 (ip), vehicle: saline 94 % of control

N#C/C(=C\c1ccco1)C1CCCCC1
inactive: dose: 100.0 mg/kg/injection, schedule: Q04DX002 (ip), vehicle: other 86 % of control | dose: 200.0 mg/kg/injection, schedule: Q04DX002 (ip), vehicle: other 104 % of control

CC1C=CC2CC(O)C12 (configuration not stated)
inactive: [19] 111 % of control | [10] 102 % of control | [20] 93 % of control | [16] 98 % of control | [21] 99 % of control | [17] 98 % of control

CN(C)C(=S)Oc1ccc(N)cc1
inactive: [12] 94 % of control | [14] 101 % of control | [15] 94 % of control

CC(C)CC(Br)C(=O)NCC(=O)O (configuration not stated)
inactive: [19] 88 % of control | [20] 91 % of control | [21] 89 % of control
